Earlier results as cited in patent publication US20190352262A1, “New Pleuromutilin Antibiotic Compounds, Compositions and Methods of Use and Synthesis” (YALE UNIVERSITY, priority 2017, published 2019).
“Also recorded” adds a separate entry of the source.

System: Gram-positive bacteria
Details: background statement, no data of the applicant

C=C[C@]1(C)C[C@@H](OC(=O)CO)[C@@]2(C)C3C(=O)CC[C@@]3(CC[C@H]2C)[C@H](C)C1O (single isomer, unassigned; (+)) [(+)-Pleuromutilin, (+)-pleuromutilin]
antibacterial activity (growth inhibition of Gram-positive bacteria): inhibit the growth

C=C[C@]1(C)C[C@@H](O)[C@]2(C)[C@H](C)CC[C@]3(CCC(=O)[C@H]32)[C@@H](C)[C@@H]1O [(+)-mutilin]
antibacterial activity (growth inhibition of Gram-positive bacteria): not active; also recorded: largely inactive
